Source: US20140088034A1, “NITRIC OXIDE/cGMP PATHWAY INHIBITION OF VLA-4 RELATED CELL ADHESION” (STC.UNM, priority 2011, published 2014)
Residues, ends and D or L forms follow the SMILES beside them.

How the values were obtained:
[1] = system: VLA-4; assay: Real-time flow cytometric binding of LDV-FITC probe (VLA-4 affinity change) on GPCR-transfected U937 cells; type: cell-based, human; details: for effect on magnitude of LDV-FITC binding response, compound added prior to IL-8 activation: U937 CXCR2/IL-8RB; for effect on magnitude of LDV-FITC binding response, compound added prior to IL-8 activation / effect on magnitude of LDV-FITC binding response, compound added prior to SDF-1 activation: added at 0 time point, BAY 41-2272 100 μM; for effect on magnitude of LDV-FITC binding response, compound added prior to SDF-1 activation: U937 CXCR4; for reversibility of the decrease in LDV-FITC binding / effect on LDV-FITC binding, compound added after fMLFF activation: U937 non-desensitizing FPR mutant (ΔST), LDV-FITC 4 nM, fMLFF 100 nM; for effect on LDV-FITC binding, compound added after fMLFF activation: different concentrations
Protocol: Experiments were conducted as described under “Methods”, infra. A, LDV-FITC probe binding and dissociation on U937 cells stably transfected with the non-desensitizing mutant of FPR (ΔST) receptor plotted as mean channel fluorescence (MCF) versus time.
The experiment involved sequential addition of fluorescent LDV-FITC probe (4 nM, below saturation, added 2 min prior to addition of Gαi-coupled receptor ligand, fMLFF, 100 nM), and different concentrations of DEA-NONOate (nitric oxide donor) (arrows). Control cells were treated with vehicle. The MCF value corresponding to cell autofluorescence is indicated by the horizontal arrow. […] Curves are means of two independent determinations calculated on a point-by-point basis (n=2). B, LDV-FITC probe binding and dissociation on U937 cells stably transfected with wild type CXCR4 receptor plotted as mean channel fluorescence (MCF) versus time.
The experiment involved sequential addition of fluorescent LDV-FITC probe (4 nM), CXCL12/SDF-1 (12 nM), and DEA-NONOate (250 μM, nitric oxide donor) or vehicle (control) (arrows). Rapid and reversible binding of the probe reflects the VLA-4 affinity change. Curves are means of two independent determinations calculated on a point-by-point basis (n=2). SEM of mean, calculated on a point by point basis, indicated using error bars to show significance of the difference between treatment and control samples. C, LDV-FITC probe binding and dissociation on U937 cells stably transfected with wild type CXCR2/IL-8RB receptor plotted as mean channel fluorescence (MCF) versus time.
The experiment involved sequential addition of the fluorescent LDV-FITC probe (4 nM), CXCL8/IL-8 (20 nM), and DEA-NONOate (250 μM, nitric oxide donor) or vehicle (control) (arrows). This experiment is analogous to the one shown in panel B. One representative experiment of three experiments is shown. Curves are means of two independent determinations calculated on a point-by-point basis (n=2). D, LDV-FITC probe binding and dissociation on U937 cells stably transfected with wild type CXCR4 receptor plotted as mean channel fluorescence (MCF) versus time.
The experiment involved sequential addition of the DEA-NONOate (250 μM, nitric oxide donor) or vehicle (control) at the 0 time point, and the fluorescent LDV-FITC probe (4 nM), CXCL12/SDF-1 (12 nM) (arrows). Rapid and reversible binding of the probe reflects the VLA-4 affinity change. Excess unlabelled competitor LDV (1 μM) is added at the end of the experiment to determine the non-specific binding of the probe. Curves are means of two independent determinations calculated on a point-by-point basis (n=2). SEM, calculated on a point by point basis, is indicated using error bars to show the significance of the difference between treatment and control samples. E, LDV-FITC probe binding and dissociation on U937 cells stably transfected with wild type CXCR2/IL-8RB receptor plotted as mean channel fluorescence (MCF) versus time.
The experiment involved sequential addition of DEA-NONOate (250 μM, nitric oxide donor) or vehicle (control) at the 0 time point, and the fluorescent LDV-FITC probe (4 nM), CXCL8/IL-8 (20 nM) (arrows). Excess unlabelled competitor LDV (1 μM) added at the end of the experiment to determine the non-specific binding of the probe. This experiment is analogous to the one shown in panel D. One representative experiment of three experiments is shown. Curves are means of two independent determinations calculated on a point-by-point basis (n=2). […] Experiments shown in the different panels were performed using different instruments, and therefore MCF values are not identical. […]
LDV-FITC probe binding and dissociation on U937 cells stably transfected with the non-desensitizing mutant of FPR plotted as mean channel fluorescence (MCF) versus time. […]

[2] = target: VLA-4 (Homo sapiens, UniProt P05556+P13612); assay: Kinetic dissociation rate (koff) analysis of LDV-FITC probe on U937 cells with non-desensitizing FPR mutant; type: cell-based; details: U-937; U937 FPR ΔST; fMLFF 100 nM then BAY 41-2272 50 μM; LDV-FITC 25 nM, LDV block 2 μM; read-out: dissociation rate constant koff of LDV-FITC after fMLFF and BAY 41-2272
Sequence of VLA-4 (Homo sapiens, UniProt P05556+P13612) (P13612 34-1032): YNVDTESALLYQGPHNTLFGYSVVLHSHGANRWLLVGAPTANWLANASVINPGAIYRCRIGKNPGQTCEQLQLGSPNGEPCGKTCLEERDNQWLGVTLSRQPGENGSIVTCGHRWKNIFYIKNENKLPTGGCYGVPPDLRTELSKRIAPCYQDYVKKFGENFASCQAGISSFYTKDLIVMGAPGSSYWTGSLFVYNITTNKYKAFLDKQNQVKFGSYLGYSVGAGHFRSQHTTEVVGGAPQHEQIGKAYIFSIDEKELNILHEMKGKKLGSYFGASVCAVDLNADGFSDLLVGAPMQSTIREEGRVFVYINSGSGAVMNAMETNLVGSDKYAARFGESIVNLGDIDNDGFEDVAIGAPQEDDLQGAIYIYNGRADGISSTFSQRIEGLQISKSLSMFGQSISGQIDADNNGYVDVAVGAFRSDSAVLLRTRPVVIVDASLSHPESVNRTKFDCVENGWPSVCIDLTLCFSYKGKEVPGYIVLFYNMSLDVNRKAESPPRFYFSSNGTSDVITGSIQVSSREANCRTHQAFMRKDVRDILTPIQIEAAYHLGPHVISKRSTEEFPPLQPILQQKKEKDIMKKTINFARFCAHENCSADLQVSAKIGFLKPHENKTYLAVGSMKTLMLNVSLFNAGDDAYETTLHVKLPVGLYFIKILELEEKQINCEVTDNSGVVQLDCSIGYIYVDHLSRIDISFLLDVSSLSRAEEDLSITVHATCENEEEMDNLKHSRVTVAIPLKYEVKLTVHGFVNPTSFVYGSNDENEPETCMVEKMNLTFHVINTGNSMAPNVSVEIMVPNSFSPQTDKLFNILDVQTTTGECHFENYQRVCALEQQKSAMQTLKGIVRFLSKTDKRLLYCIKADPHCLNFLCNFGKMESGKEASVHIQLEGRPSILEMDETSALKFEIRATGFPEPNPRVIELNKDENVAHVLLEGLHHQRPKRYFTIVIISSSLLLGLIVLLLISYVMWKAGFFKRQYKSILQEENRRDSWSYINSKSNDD
Sequence of VLA-4 (Homo sapiens, UniProt P05556+P13612) (P05556 21-798): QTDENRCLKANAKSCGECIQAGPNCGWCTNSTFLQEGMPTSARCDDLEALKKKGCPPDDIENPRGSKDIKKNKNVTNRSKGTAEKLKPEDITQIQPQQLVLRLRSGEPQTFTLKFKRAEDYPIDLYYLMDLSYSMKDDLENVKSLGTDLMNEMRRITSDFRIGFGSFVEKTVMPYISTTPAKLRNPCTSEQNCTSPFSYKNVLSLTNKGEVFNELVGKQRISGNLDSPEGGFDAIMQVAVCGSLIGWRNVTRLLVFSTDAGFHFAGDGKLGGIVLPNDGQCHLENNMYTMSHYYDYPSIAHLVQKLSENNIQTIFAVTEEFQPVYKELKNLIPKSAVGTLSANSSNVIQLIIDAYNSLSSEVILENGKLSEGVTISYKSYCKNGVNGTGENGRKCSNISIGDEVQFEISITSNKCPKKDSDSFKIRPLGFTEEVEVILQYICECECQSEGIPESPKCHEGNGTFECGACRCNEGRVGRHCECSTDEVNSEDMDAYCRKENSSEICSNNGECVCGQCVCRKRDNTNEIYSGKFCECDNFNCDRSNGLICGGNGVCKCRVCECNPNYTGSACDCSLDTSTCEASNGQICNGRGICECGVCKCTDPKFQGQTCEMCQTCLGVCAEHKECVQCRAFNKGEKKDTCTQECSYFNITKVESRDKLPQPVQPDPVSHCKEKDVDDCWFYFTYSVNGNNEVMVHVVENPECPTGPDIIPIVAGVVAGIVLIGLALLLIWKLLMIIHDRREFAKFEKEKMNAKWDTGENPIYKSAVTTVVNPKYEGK
Protocol: The experiment involved sequential addition of BAY 41-2272 (100 μM, guanylyl cyclase activator) or vehicle (control) at the 0 time point, and the fluorescent LDV-FITC probe (4 nM), and CXCL8/IL-8 (20 nM) (arrows). Excess unlabelled competitor LDV (1 μM) added at the end of the experiment to determine the non-specific binding of the probe. This experiment is analogous to the one shown in panel B. One representative experiment of two experiments is shown. Curves are means of two independent determinations calculated on a point-by-point basis (n=2). […] D, Kinetic analysis of binding and dissociation of LDV-FITC probe on U937 cells stably transfected with the non-desensitizing mutant of FPR. Cells were sequentially treated with the LDV-FITC probe (25 nM, near saturation), the Gαi-coupled receptor ligand (fMLFF, 100 nM), BAY 41-2272 (guanylyl cyclase activator, 50 μM) (arrows). At time points indicated by arrows, cells were treated with excess unlabeled LDV containing small molecule (2 μM), and the dissociation of the fluorescent molecule was followed. Dissociation rate constants (koff) were obtained by fitting dissociation curves to a single exponential decay equation (as described in the text). Experiments shown in the different panels were performed using different instruments, and therefore MCF values are not identical. E, Dissociation rate values, obtained in experiments analogous to panel B, summarized as a bar graph showing mean and SEM (n=4). Colors of the dissociation curves in panel D and bars on panel E are matching. The difference between koffs for “resting” and “fMLFF activated”, and between “fMLFF activated” and “fMLFF activated and treated with BAY 41-2272” is statistically significant (P=0.0006<0.05) as calculated by one-way analysis of variance (ANOVA) using GraphPad Prism software. […]
Next, the regions of the ligand-binding curves corresponding to the dissociation of the LDV-FITC probe were fitted to a single exponential decay equation. […] The affinity state induced by guanylyl cyclase activator was quantitatively similar to the resting state before activation. […]

[3] = system: VLA-4/VCAM-1 dependent cell adhesion; assay: Real-time cell aggregation between U937 FPR (ΔST) and VCAM-1-transfected B78H1 cells; type: cell-based, human; details: U937 FPR ΔST + B78H1/VCAM-1; fMLFF 100 nM; DEA-NONOate 250 μM; LDV block 2 μM 6 min after mixing
Protocol: Real-time aggregation experiments were conducted as described under “Methods”, infra. U937/AST FPR stably transfected cells, which constitutively express VLA-4, were labeled with red fluorescent dye, and B78H1/VCAM-1 transfectants were stained with green fluorescent dye. […] Next, cells were mixed and real-time cell aggregation (red and green double positive events) was followed. To determine the level of VLA-4 dependent cell aggregation, 6 min after cell mixing, excess unlabelled VLA-4 specific ligand was added (arrow, LDV block, 2 μM).
Prior to the experiment, individual cell populations were stained with either of two fluorescent dyes (red and green). Next, the cell populations were mixed, and the appearance of double positive events, representing cellular aggregates, was followed in real-time by flow cytometry (see FIG. 1, 2, 3 in [55] for method details).
The cell suspension adhesion assay has been described previously. Briefly, U937/AST FPR stably transfected cells were labeled with red fluorescent PKH26GL dye, and B78H1/VCAM-1 transfectants were stained with green fluorescent PKH67GL dye (Sigma-Aldrich). Labeled cells were washed, resuspended in HEPES buffer supplemented with 0.1% HSA and stored on ice until used in assays. Control U937 cells were preincubated with the 1 μM LDV-containing small molecule for blocking adhesion. Prior to data acquisition, cells were warmed to 37° C. for 10 min separately and then mixed. During data acquisition, the samples were stirred with a 5×2-mm magnetic stir bar (Bel-Art Products, Pequannock, N.J.) at 300 rpm and kept at 37° C. For stimulation, cells were treated with appropriate GPCR ligands at saturating concentration (10 times or higher than Kd). In several experiments cells were treated sequentially with two different compounds. […] The percentage of aggregates was calculated as follows: % U937 cells in aggregates=number of aggregates/(number of aggregates+number of U937 singlets))×100. […]

[4] = DEA-NONOate 250 μM, CXCL8/IL-8 20 nM
[5] = DEA-NONOate 250 μM, CXCL12/SDF-1 12 nM

For `Nc1nc(-c2nn(Cc3ccccc3F)c3ncccc23)ncc1C1CC1` [BAY 41-2272, 3-(4-Amino-5-cyclopropylpyrimidin-2-yl)-1-(2-fluorobenzyl)-1H-pyrazolo[3,4-b]pyridine], the “effect on magnitude of LDV-FITC binding response, compound added prior to IL-8 activation” value [1, 4] was “decrease in the magnitude of the response”, the “effect on magnitude of LDV-FITC binding response, compound added prior to SDF-1 activation” value [1, 5] was “decrease in the magnitude of the response” and the “reversibility of the decrease in LDV-FITC binding” value (from here on “reversibility of the decrease”) [1] was “partially reversible”. For the same compound, the “effect on LDV-FITC binding, compound added after fMLFF activation” value (from here on “effect … after fMLFF activation”) [1] was “significant decrease in LDV-FITC binding” and the koff [2] was about 0.036 s⁻¹.
In the case of `CCN(CC)/[N+]([O-])=N/O` [DEA-NONOate], the “effect on magnitude of LDV-FITC binding response, compound added prior to IL-8 activation” value [1, 4] is reported as “significant decrease in the magnitude of the response”, the “effect on magnitude of LDV-FITC binding response, compound added prior to SDF-1 activation” value [1, 5] is reported as “significant decrease in the magnitude of the response” and the “reversibility of the decrease” value [1] is reported as “not reversible”. For the same compound, the “effect … after fMLFF activation” value [1] was “rapid and dose-dependent decrease in the binding of the VLA-4 specific ligand”, the “effect on LDV-FITC binding, compound added after CXCL8/IL-8 activation” value ([1]; U937 wild type CXCR2/IL-8RB, CXCL8/IL-8 20 nM, DEA-NONOate 250 μM) was “faster and more pronounced signal decrease” and the “effect on LDV-FITC binding, compound added after CXCL12/SDF-1 activation” value ([1]; U937 wild type CXCR4, CXCL12/SDF-1 12 nM, DEA-NONOate 250 μM) was “faster and more pronounced signal decrease”. The “effect on VLA-4/VCAM-1 dependent cell aggregation (% U937 cells in aggregates)” value (“effect … (% U937 cells in aggregates)” below) [3] was “abolished fMLFF-dependent cellular aggregation”.
With `Cc1ccccc1NC(=O)Nc1ccc(CC(=O)N[C@@H](CC(C)C)C(=O)N[C@@H](CC(=O)O)C(=O)N[C@H](C(=O)N2CCC[C@H]2C(=O)N[C@@H](C)C(=O)N[C@@H](C)C(=O)N[C@@H](CCCCN)C(=O)O)C(C)C)cc1` [LDV, 4-((N′-2-methylphenyl)ureido)-phenylacetyl-L-leucyl-L-aspartyl-L-valyl-L-prolyl-L-alanyl-L-alanyl-L-lysine] the “effect … (% U937 cells in aggregates)” value [3] was “rapid cellular disaggregation”.
For `CCCC(=O)Nc1nc2c(ncn2C2OC3COP(=O)([O-])OC3C2OC(=O)CCC)c(=O)[nH]1.[Na+]` (stereo not shown) [dbcGMP, N^2,2′-O-Dibutyrylguanosine 3′,5′-cyclic monophosphate], the “reversibility of the decrease” value [1] was “reversible” and the “effect … after fMLFF activation” value [1] was “dose-dependent decrease in the binding of the probe”.
`CSCC[C@H](NC=O)C(=O)N[C@@H](CC(C)C)C(=O)N[C@@H](Cc1ccccc1)C(=O)N[C@@H](Cc1ccccc1)C(=O)O` [fMLFF, N-formyl-L-methionyl-L-leucyl-L-phenylalanyl-L-phenylalanine] (HELM PEPTIDE1{[O=C[*:2]].M.L.F.F}$$$$V2.0) was tested, and the “effect … (% U937 cells in aggregates)” value [3] was “rapid increase in cell aggregation”.
